The supplement of paper PMC10307832

Experiments:
Test in all cases: relative viability (nuclei count vs DMSO), 5 days (fraction); higher = more cells survive
CX-5461 + Pemetrexed = compound: Cc1cnc(CNC(=O)c2c(=O)c3ccc(N4CCCN(C)CC4)nc3n3c2sc2ccccc23)cn1 [CX-5461] + Nc1nc2[nH]cc(CCc3ccc(C(=O)N[C@@H](CCC(=O)O)C(=O)O)cc3)c2c(=O)[nH]1 [Pemetrexed] (partner 0.2 µM)
How it was run: (§1)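 One day after seeding in 1536-well plates, lung cancer cell lines were dosed by pin tool. Dosing was either single-drug or a fixed anchor-drug dose plus five library-drug doses (not always all listed) in √10 steps. After 5 days, nuclei were stained in one fix-and-stain step and counted on 4× images, and relative viability is the nuclei count of treated wells over that of vehicle wells, given as the median of duplicate plates.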

IMD-0354 + Trametinib = compound: O=C(Nc1cc(C(F)(F)F)cc(C(F)(F)F)c1)c1cc(Cl)ccc1O [IMD-0354] + CC(=O)Nc1cccc(-n2c(=O)n(C3CC3)c(=O)c3c(Nc4ccc(I)cc4F)n(C)c(=O)c(C)c32)c1 [Trametinib] (partner 0.02 µM)
How it was run: as §1

IMD-0354 + Foretinib = compound: O=C(Nc1cc(C(F)(F)F)cc(C(F)(F)F)c1)c1cc(Cl)ccc1O [IMD-0354] + COc1cc2c(Oc3ccc(NC(=O)C4(C(=O)Nc5ccc(F)cc5)CC4)cc3F)ccnc2cc1OCCCN1CCOCC1 [Foretinib] (partner 0.25 µM)
How it was run: as §1

IMD-0354 + Pemetrexed = compound: O=C(Nc1cc(C(F)(F)F)cc(C(F)(F)F)c1)c1cc(Cl)ccc1O [IMD-0354] + Nc1nc2[nH]cc(CCc3ccc(C(=O)N[C@@H](CCC(=O)O)C(=O)O)cc3)c2c(=O)[nH]1 [Pemetrexed] (partner 0.2 µM)
How it was run: as §1

Row | Cell Line | relative viability (CX-5461 + Pemetrexed; first compound 0.01 µM) | relative viability (CX-5461 + Pemetrexed; first compound 0.03162 µM) | relative viability (CX-5461 + Pemetrexed; first compound 0.1 µM) | relative viability (CX-5461 + Pemetrexed; first compound 0.3162 µM) | relative viability (CX-5461 + Pemetrexed; first compound 1 µM) | relative viability (IMD-0354 + Trametinib; first compound 0.04 µM) | relative viability (IMD-0354 + Trametinib; first compound 0.1265 µM) | relative viability (IMD-0354 + Trametinib; first compound 0.4 µM) | relative viability (IMD-0354 + Trametinib; first compound 1.265 µM) | relative viability (IMD-0354 + Trametinib; first compound 4 µM) | relative viability (IMD-0354 + Foretinib; first compound 0.04 µM) | relative viability (IMD-0354 + Foretinib; first compound 0.1265 µM) | relative viability (IMD-0354 + Foretinib; first compound 0.4 µM) | relative viability (IMD-0354 + Foretinib; first compound 1.265 µM) | relative viability (IMD-0354 + Foretinib; first compound 4 µM) | relative viability (IMD-0354 + Pemetrexed; first compound 0.04 µM) | relative viability (IMD-0354 + Pemetrexed; first compound 0.1265 µM) | relative viability (IMD-0354 + Pemetrexed; first compound 0.4 µM) | relative viability (IMD-0354 + Pemetrexed; first compound 1.265 µM) | relative viability (IMD-0354 + Pemetrexed; first compound 4 µM)
1 | NCI-H2170 | 0.252 | 0.257 | 0.267 | 0.26 | 0.272 | 1.03 | 0.909 | 0.562 | 0.897 | 0.481 | 1.05 | 1.03 | 1.01 | 0.841 | 0.268 | 0.275 | 0.302 | 0.235 | 0.286 | 0.191
2 | NCI-H1944 | 0.561 | 0.653 | 0.531 | 0.451 | 0.271 | 0.399 | 0.391 | 0.388 | 0.39 | 0.167 | 0.873 | 0.963 | 0.887 | 0.945 | 0.154 | 0.593 | 0.683 | 0.642 | 0.146 | 0.122
3 | NCI-H520 | 0.719 | 0.725 | 0.708 | 0.608 | 0.484 | 0.687 | 0.725 | 0.522 | 0.143 | 0.149 | 1.04 | 0.842 | 0.458 | 0.469 | 0.2 | 0.668 | 0.838 | 0.392 | 0.149 | 0.139
4 | NCI-H460 | 0.0543 | 0.0602 | 0.0575 | 0.0623 | 0.0755 | 0.196 | 0.173 | 0.0878 | 0.0353 | 0.0199 | 0.988 | 0.858 | 0.366 | 0.0865 | 0.026 | 0.0638 | 0.0692 | 0.0923 | 0.0741 | 0.0289
5 | EKVX | 0.457 | 0.394 | 0.437 | – | 0.322 | 0.399 | 0.3 | – | 0.339 | 0.175 | 0.974 | 0.975 | 0.714 | 0.0943 | 0.13 | 0.456 | 0.347 | – | 0.234 | 0.201
6 | SK-MES-1 | 0.95 | 0.988 | 0.888 | 0.955 | 0.546 | 0.658 | 0.612 | 0.49 | 0.401 | 0.203 | 0.876 | 0.66 | 0.831 | 0.782 | 0.324 | 1.16 | 1.06 | 0.466 | 0.349 | 0.187
7 | EPLC-272H | 0.319 | 0.382 | 0.367 | 0.402 | 0.377 | 0.295 | 0.271 | 0.317 | 0.268 | 0.201 | 0.761 | 0.61 | 0.512 | 0.269 | 0.0781 | 0.332 | 0.278 | 0.474 | 0.247 | 0.214
8 | NCI-H1793 | 1.17 | 1.21 | 0.92 | 0.706 | 0.802 | 0.346 | 0.442 | 0.283 | 0.211 | 0.169 | 0.844 | 0.622 | 0.305 | 0.22 | 0.202 | 0.971 | 0.795 | 0.446 | 0.191 | 0.257
9 | NCI-H2126 | 0.697 | 0.713 | 0.687 | 0.672 | 0.634 | 0.591 | 0.558 | 0.491 | 0.644 | 0.31 | 0.935 | 1.23 | 0.813 | 0.875 | 0.494 | 0.74 | 0.722 | 0.569 | 0.37 | 0.266
10 | LXF-289 | 0.867 | 0.933 | 0.847 | – | 0.574 | 0.721 | 0.62 | 0.643 | 0.5 | 0.207 | 0.945 | 0.99 | 0.646 | 0.483 | 0.129 | 0.898 | 0.884 | 0.868 | 0.26 | 0.129
11 | NCI-H2009 | 1.01 | 1.07 | 0.964 | 1.01 | 0.826 | 0.312 | 0.298 | 0.249 | 0.129 | 0.154 | 1.22 | 1.18 | 0.817 | 0.406 | 0.147 | 0.934 | 1 | 0.722 | 0.324 | 0.124
12 | SW 900 | 0.437 | 0.52 | – | 0.521 | 0.441 | 0.711 | 0.639 | 0.599 | 0.154 | 0.212 | 0.886 | 0.787 | 0.444 | 0.562 | 0.246 | 0.544 | 0.519 | 0.329 | 0.182 | 0.196
13 | NCI-H2405 | 1.06 | 0.892 | 1 | 1.02 | 0.911 | 0.753 | 0.625 | 0.518 | 0.283 | 0.277 | 1.1 | 1.02 | 0.926 | 0.365 | 0.303 | 1.16 | 0.965 | 0.49 | 0.271 | 0.277
14 | NCI-H1755 | 0.389 | 0.507 | 0.427 | 0.399 | 0.488 | 0.858 | 0.796 | 0.694 | 0.665 | 0.228 | 0.912 | 1.05 | 0.854 | 0.586 | 0.278 | 0.458 | 0.407 | 0.387 | 0.375 | 0.291
